Series [1] has as its system DFT1 1426 cells. Type of series: cell-based, Tasmanian devil (Sarcophilus harrisii). To be noted: for effect on cell viability (in words): 12-36 h; for concentration toxic to DFT1 1426 cells: summary in the discussion. On the procedure:
The DFT1 cell line 1426, derived from a primary DFT1 tumour, was obtained from Menzies Institute for Medical Research, University of Tasmania. The cell line was maintained in RPMI 1640 media with 2 mM L-glutamine (Gibco) supplemented with 10% AmnioMax II (Gibco), 10% heat-inactivated foetal bovine serum (FBS) and 1% penicillin/streptomycin (Sigma-Aldrich), in T75 flasks (Nunc) at 35 °C 5% CO2. Cells were passaged using trypsin–EDTA (Sigma-Aldrich) when 90% confluent.
Toxicity of seven Tasmanian devil cathelicidins against DFT1 1426 cells was determined for twofold dilutions from 500 to 15.62 µg/mL, and four different timepoints (12, 18, 24 and 36 h). Confluent DFT1 1426 cells (passage 22) were re-suspended in RPMI 1640 with 10% FBS and 10% AmnioMax II at a concentration of 5 × 10^5 cells/mL, and 100μL seeded into each well of a sterile flat-bottom 96 well plate (Corning), with individual plates for each timepoint (12, 18, 24 and 36 h). All plates were incubated for 24 h at 35 °C 5% CO2 prior to the cytotoxicity test.
At 0 h, 100 μL of each peptide dilution was then added to each plate in quadruplicate for all timepoints (12, 18, 24 and 36 h), resulting in a final peptide concentrations of 500 μg/mL, 250 μg/mL, 125 μg/mL, 62.50 μg/mL, 31.25 μg/mL and 15.62 μg/mL. […] An untreated growth control of RPMI 1640, a positive control of dimethylsulfoxide (DMSO) (15%) and sterility control of RPMI 1640 only (no cells) were also included for each time point.
For the 12 h timepoint, 10% alamarBlue was immediately added to each well of the plate after addition of the peptide. For the remaining timepoints, plates were incubated for an additional 6, 12 or 24 h after addition of the peptides, then 10% alamarBlue added to each well. For all timepoints, after the addition of alamarBlue cells were incubated for a further 12 h, resulting in a total peptide incubation period of 12, 18, 24 and 36 h. Absorbance of alamarBlue for all timepoints was determined at 570 nm and 630 nm on a Biotek 800 TS microplate reader. Cell viability was calculated according to manufacturer’s instructions and expressed as a percentage of cell survival compared to the untreated growth control.
A one-sample, one-tailed t-test was used to test for significant difference in viability between treated cells and the negative growth control. A one sample, two-tailed t-test was also conducted to ensure there was no significant difference in viability between the negative growth control and the cells treated with the solvent only. Statistical analysis was conducted in R (R Development Core Team 2021).

Series [2] has as its system DFT1 1426 cells. Description: RNAseq differential gene expression in peptide-treated DFT1 1426 cells. Type of series: cell-based, Tasmanian devil (Sarcophilus harrisii). As to conditions: 500 μg/mL, 10 h, n = 3, vs vehicle control; for percentage of DE genes: of 15,548 genes. The procedure: RNAseq was used to characterize the mechanisms underlying the anticancer activity of the peptides. Confluent DFT1 1426 cells (passage number 25) were re-suspended at a concentration of 5 × 10^5 cells/ml and 1 mL seeded into each well of a sterile flat-bottom polystyrene 12-well plate (Corning). Following incubation for 24 h at 35 °C 5% CO2, media was aspirated from the cells and replaced with 500 μL of RPMI 1640 with 2 mM L-glutamine, 10% FBS and 10% AmnioMax II. 500 μL of each 1 mg/mL peptide solution (Saha-CATH1 to 7) was then added to the plate in triplicate, to give a final peptide concentration of 500 μg/mL. […] A vehicle control was also added to the plate in triplicate.
The plate was then incubated for a further 10 h at 35 °C in 5% CO2. This incubation period was selected as the cytotoxicity assay indicated it was sublethal for most of the peptides and would maintain sufficient cell viability to extract intact RNA. Media was then aspirated from the cells, which were washed twice with Dulbecco’s phosphate buffered saline (DPBS) (Sigma-Aldrich).
Total RNA was extracted from each replicate of the peptide-treated and vehicle control cells (n = 3) using the RNeasy mini kit (Qiagen) with cell lysis directly in each well of the 12 well plate. Total RNA was quality assessed using the RNA nano 6000 kit on the Agilent Bioanalyzer with all samples displaying a RIN score between 5 and 9. In total, 24 RNA samples corresponding to three treatments per peptide (Saha-CATH1 to 7) and a vehicle control were submitted to Ramaciotti Centre for Genomics (The University of New South Wales) for sequencing. Illumina TruSeq mRNA libraries were prepared for all samples, which were sequenced as 2 × 150 bp paired-end reads across an SP flowcell on the NovaSeq6000.
Raw reads were quality assessed using FastQC v0.11.8[47], then quality and length trimmed using Trimmomatic v0.39[48] using default parameters. Trimmed reads for each treatment (n = 3) and the control (n = 3) were aligned to the Tasmanian devil reference genome v7.0 (NCBI: GCA_000189315.1[49] using STAR v2.7.8a[50]. Alignments for each treatment were summarized into gene counts using featureCounts in the subread package v1.5.1[51].
Gene counts were used as input for differential expression analysis in R[52]. Genes with less than 50 counts across all samples were removed from the analysis, as these were unlikely to be biologically relevant and lacked sufficient statistical power. Firstly, the data was normalized by trimmed mean of M values (TMM) using edgeR v3.32.1[53] to account for any composition bias between libraries and to give an effective library size for downstream analysis. Multidimensional scaling (MDS) was used to check for variation between treatments using limma v3.36.0[54]. Expression levels were then normalized using upper-quartile normalization in EDAseq v2.24.0[55] to account for differences in distribution between lanes, such as sequencing depth. Differential expression analysis was performed using voom in the limma v3.36.0 package.
(§1) Over-representation analysis of Biological Processes was conducted in clusterProfiler v3.18.1[57]. Statistical significance was adjusted for multiple comparisons using the Benjamini–Hochberg method, and terms were considered significant when p-adj < 0.05. To remove general terms, gene sets larger than 200 were removed, and the simplify function was used to remove redundant GO terms. Further pathway analysis was conducted in IPA (Qiagen)[58], using mammal as the species type and nervous system for the tissue/cell type.

The subject of series [3] is DFT1 1426 cells. Description: Ingenuity Pathway Analysis (canonical pathways) of DE genes in treated DFT1 1426 cells. As to conditions: DE genes of cells treated with 500 μg/mL for 10 h. Type of series: cell-based, Tasmanian devil (Sarcophilus harrisii). The procedure:
as §1

The next series concerns human cell line A549. To be noted: cited from earlier work. On the procedure:
Here we aimed to identify cathelicidin candidates for future development as anti-DFTD therapeutics. Four Tasmanian devil cathelicidins (Saha-CATH3, 4, 5 and 6) were toxic to DFT1 1426 cells at high concentrations: Saha-CATH3 at concentrations ≥ 62.5 µg/mL; Saha-CATH4 at 500 µg/mL; Saha-CATH5 at concentrations ≥ 125 µg/mL and Saha-CATH6 at concentrations ≥ 250 µg/mL. Previous studies have shown that two of these peptides (Saha-CATH3 and 4) are non-toxic to human cell line A549[44]. The other two (Saha-CATH5 and 6) reduced cell viability at high concentrations (500 µg/mL), resulting in 42% and 5 ...

The test system of another series is human red blood cells. As to conditions: human red blood cells; cited from earlier work. The text has this:
Cathelicidins have been isolated from many vertebrate taxa[34]–[37]. However, they have undergone gene expansion in marsupials due to the need for additional protection of immunologically naïve young during development in the pouch. […] During development within the pouch, young are exposed to diverse microbial flora, some of which are pathogenic. This has likely encouraged the lineage-specific expansion of cathelicidins in marsupials, resulting in mult ...

[4] abbreviates: pre-replication complex, RNAseq.

No end group written: not given here.

As for “GIKHILFMAKTKLPRATCTAEIKENCDRKK [Saha-CATH1, Tasmanian devil cathelicidin mature peptide, synthesized by ChinaPeptides Co. Ltd to 95% purity]”, the “effect on cell viability (in words)” value in the series on DFT1 1426 cells [1] (500 µg/mL, DFT1 1426 cells) is reported as “did not reduce cell viability”. The “percentage of DE genes” value in the series on DFT1 1426 cells [2] is listed as “less than 1%”.
Turning to “KREDFLDQIIRDFRNFIYQKYRRLRDEFRKLRDILSG [Saha-CATH4, Tasmanian devil cathelicidin mature peptide, synthesized by ChinaPeptides Co. Ltd to 95% purity]”, in the series on DFT1 1426 cells [3], the “IPA z-score, Cyclins and Cell Cycle Regulation” value is -3.317; the “IPA z-score, Th17 activation pathway” value was found to be 3.317; the “IPA z-score, cell cycle control of chromosomal replication” value is -3.638. Also, the “concentration toxic to DFT1 1426 cells” value in the series with DFT1 1426 cells [1] turned out to be 500 µg/mL. Also, in the series with DFT1 1426 cells [2] (G1-S phase transition, RNAseq), the “Fold change, gene CCND3” value stood at 0.35; the “Fold change, gene CCNE1” value amounted to 0.44; the “Fold change, gene CCNE2” value was 0.31. In addition, in the series on DFT1 1426 cells [2] (cyclin transcription factor, RNAseq), the “Fold change, gene E2F2” value is 0.28. For the same sequence, the “Fold change, gene IL6R” value in the series with DFT1 1426 cells [2] (cytokine receptor, RNAseq) was 5.25. The “Fold change, gene IL6” value with DFT1 1426 cells [2] (cytokine, RNAseq) came to 3.73. Further, in the series with DFT1 1426 cells [2] (immune signaling, RNAseq), the “Fold change, gene MYD88” value is on record as 4.15. In addition, the “percentage of DE genes” value in the series on DFT1 1426 cells [2] is listed as 18.75%. For the same sequence, in the series on DFT1 1426 cells [2] (setting [4]), the “Fold change, gene CDC6” value came to 0.29; the “Fold change, gene CDC7” value was determined as 0.38; the “Fold change, gene ORC1” value is on record as 0.46. The “Fold change, gene RUNX1” value in the series on DFT1 1426 cells [2] (transcription factor, RNAseq) is 2.43. Further, the “toxicity to human cell line A549 (in words)” value in the series on human cell line A549 is given as “non-toxic”.
For KRIGLGGLIGRILDRLRRLG [Saha-CATH5], in the series with DFT1 1426 cells [3], the “IPA z-score, ERBB2-ERBB3” value is given as -4.439; the “IPA z-score, ERBB4 signaling” value is given as -5.425; the “IPA z-score, ERBB signaling” value is recorded as -6.068; the “IPA z-score, Hippo signalling” value was 0.898. Moreover, in the series with DFT1 1426 cells [3], the “IPA z-score, cell cycle control of chromosomal replication” value is recorded as -3.780. Also, in the series with DFT1 1426 cells [1] (500 μg/mL, 36 h, DFT1 1426 cells, alamarBlue, quadruplicate), the “decrease in cell viability compared to the growth control” value is “more than 50%”. In the series on DFT1 1426 cells [1] (500 µg/mL, after 18 h, mean of quadruplicate), the “cell viability (% of untreated growth control)” value is given as 0%. Further, in the series on DFT1 1426 cells [1] (36 h), the “cytotoxic concentration (cell viability reduced by more than 50%)” value is recorded as no less than 125 µg/mL. Besides, in the series on DFT1 1426 cells [1], the “concentration toxic to DFT1 1426 cells” value is no less than 125 µg/mL. The “Fold change (FC), gene ERBB3” value in the series with DFT1 1426 cells [2] (RNAseq) was 0.34. In addition, in the series with DFT1 1426 cells [2] (G1-S phase transition, RNAseq), the “Fold change, gene CCND1” value is 0.52; the “Fold change, gene CCNE1” value came out at 0.37; the “Fold change, gene CCNE2” value was determined as 0.30. Moreover, in the series on DFT1 1426 cells [2], the “percentage of DE genes” value is 74.05%. Further, in the series with DFT1 1426 cells [2] (setting [4]), the “Fold change, gene CDC6” value is listed as 0.39; the “Fold change, gene CDC45” value amounted to 0.42; the “Fold change, gene ORC1” value is on record as 0.54. Further, the “cell survival of human cell line A549” value in the series on human cell line A549 (500 µg/mL) was 42%. For the same sequence, in the series with human red blood cells, the “concentration at which moderately haemolytic” value is on record as “above 250 μg/mL”.
Turning to “STILEDPGKIRERRDIGEEPIQKKQKMYRDQMQ [Saha-CATH7, Tasmanian devil cathelicidin mature peptide, synthesized by ChinaPeptides Co. Ltd to 95% purity]”, the “effect on cell viability (in words)” value in the series with DFT1 1426 cells [1] (500 µg/mL, DFT1 1426 cells) is given as “did not reduce cell viability”. The “percentage of DE genes” value in the series on DFT1 1426 cells [2] is on record as “less than 1%”. The “number of differentially expressed (DE) genes” value with DFT1 1426 cells [2] (out of a total of 15,548 genes) is reported as 0.
In the case of “TFKRKNGSRKNGHRPGGYSLIALGNKKVLKAPYMESI [Saha-CATH2, Tasmanian devil cathelicidin mature peptide, synthesized by ChinaPeptides Co. Ltd to 95% purity]”, the “effect on cell viability (in words)” value in the series on DFT1 1426 cells [1] (500 µg/mL, DFT1 1426 cells) was “did not reduce cell viability”. Moreover, in the series with DFT1 1426 cells [2], the “percentage of DE genes” value is reported as “less than 1%”.

The values above are taken from article PMC10403513, “Tasmanian devil cathelicidins exhibit anticancer activity against Devil Facial Tumour Disease (DFTD) cells” (Scientific Reports, 2023).
